Experimental data as given in US6414147B1, “2-amino-9-alkylpurines: GABA brain receptor ligands” (Neurogen Corporation, priority 1998, dated 2002).

Structure (SMILES)	melting point [°C]
CCCCn1cnc2c(OC)nc(Nc3ccc(OCC)nc3)nc21 [compound 1, 2-[(2-Ethoxypyrid-5-yl)amino]-6-methoxy-9-butyl-9H-purine]	174 to 176
CCCCn1cnc2c(OC)nc(Nc3ccccc3)nc21 [compound 2, 2-(Phenylamino)-6-methoxy-9-butyl-9H-purine]	172 to 174
CCCCn1cnc2c(OCC)nc(Nc3ccccc3)nc21 [compound 3, 2-(Phenylamino)-6-ethoxy-9-butyl-9H-purine]	159 to 160
CCCCn1cnc2c(OCCC)nc(Nc3ccccc3)nc21 [compound 4, 2-(Phenylamino)-6-propoxy-9-butyl-9H-purine]	115 to 116
CCCCn1cnc2c(OC(C)C)nc(Nc3ccccc3)nc21 [compound 5, 2-(Phenylamino)-6-isopropoxy-9-butyl-9H-purine]	116 to 118
CCCCn1cnc2c(OCC(C)C)nc(Nc3ccccc3)nc21 [compound 6, 2-(Phenylamino)-6-(2-methylprop-1-oxy)-9-butyl-9H-purine]	77 to 79
CCCCn1cnc2c(OCC(F)(F)F)nc(Nc3ccccc3)nc21 [compound 7, 2-(Phenylamino)-6-(2,2,2-trifluoroethoxy)-9-butyl-9H-purine]	102 to 104
CCCCn1cnc2c(SCC)nc(Nc3ccccc3)nc21 [compound 8, 2-(Phenylamino)-6-(ethylthio)-9-butyl-9H-purine]	173 to 175
CCCCn1cnc2c(OCC3CC3)nc(Nc3ccccc3)nc21 [compound 9, 2-(Phenylamino)-6-(cyclopropylmethoxy)-9-butyl-9H-purine]	124 to 126
CCCCn1cnc2c(OCCOC)nc(Nc3ccccc3)nc21 [compound 10, 2-(Phenylamino)-6-(2-methoxyethoxy)-9-butyl-9H-purine]	129 to 131
CCCCn1cnc2c(OCCOCC)nc(Nc3ccccc3)nc21 [compound 11, 2-(Phenylamino)-6-(2-ethoxyethoxy)-9-butyl-9H-purine]	135 to 137
CCCCn1cnc2c(OCCO)nc(Nc3ccccc3)nc21 [compound 12, 2-(Phenylamino)-6-(2-hydroxyethoxy)-9-butyl-9H-purine]	108 to 110
CCCCn1cnc2c(OC(C)COC)nc(Nc3ccccc3)nc21 (centres unmarked) [compound 13, 2-(Phenylamino)-6-(1-methyl-2-methoxyethoxy)-9-butyl-9H-purine]	96 to 98
CCCCn1cnc2c(OCc3ccccc3)nc(Nc3ccccc3)nc21 [compound 14, 2-(Phenylamino)-6-benzyloxy-9-butyl-9H-purine]	163 to 164
CCCCn1cnc2c(OCc3ccccn3)nc(Nc3ccccc3)nc21 [compound 15, 2-(Phenylamino)-6-(pyrid-2-ylmethoxy)-9-butyl-9H-purine]	136 to 138
CCCCn1cnc2c(OCc3cccnc3)nc(Nc3ccccc3)nc21 [compound 16, 2-(Phenylamino)-6-(pyrid-3-ylmethoxy)-9-butyl-9H-purine]	206 to 207
CCCCn1cnc2c(OCc3ccncc3)nc(Nc3ccccc3)nc21 [compound 17, 2-(Phenylamino)-6-(pyrid-4-ylmethoxy)-9-butyl-9H-purine]	136 to 139
CCCCn1cnc2c(OCc3cccs3)nc(Nc3ccccc3)nc21 [compound 18, 2-(Phenylamino)-6-(thien-2-ylmethoxy)-9-butyl-9H-purine]	170 to 172
CCCCn1cnc2c(Oc3ccccc3)nc(Nc3ccccc3)nc21 [compound 19, 2-(Phenylamino)-6-phenoxy-9-butyl-9H-purine]	124 to 125
COc1nc(Nc2ccccc2)nc2c1ncn2CCCO [compound 21, 2-(Phenylamino)-6-methoxy-9-(3-hydroxypropyl)-9H-purine]	90 to 94
CCCCCn1cnc2c(OCC)nc(Nc3ccccc3)nc21 [compound 22, 2-(Phenylamino)-6-ethoxy-9-pentyl-9H-purine]	174 to 176
CCCCCCn1cnc2c(OC)nc(Nc3ccccc3)nc21 [compound 23, 2-(Phenylamino)-6-methoxy-9-hexyl-9H-purine]	158 to 160

The next lines start with the values.

melting point [°C]	Structure (SMILES)
167 to 169	COc1nc(Nc2ccccc2)nc2c1ncn2CCC(C)C [compound 24, 2-(Phenylamino)-6-methoxy-9-(3-methylbutyl)-9H-purine]
165 to 167	COc1nc(Nc2ccccc2)nc2c1ncn2Cc1ccccc1 [compound 25, 2-(Phenylamino)-6-methoxy-9-benzyl-9H-purine]
185 to 187	CCCCn1cnc2c(OC)nc(Nc3ccc(F)cc3)nc21 [compound 27, 2-[(4-Fluorophenyl)amino]-6-methoxy-9-butyl-9H-purine]
165 to 166	CCCCn1cnc2c(OCCOC)nc(Nc3ccc(F)cc3)nc21 [compound 28, 2-[(4-Fluorophenyl)amino]-6-(2-methoxyethoxy)-9-butyl-9h-purine]
116 to 118	CCCCn1cnc2c(OCCOC(C)C)nc(Nc3ccc(F)cc3)nc21 [compound 29, 2-[(4-Fluorophenyl)amino]-6-(2-isopropoxyethoxy)-9-butyl-9H-purine]
149 to 150	CCCCn1cnc2c(OCCOCCC)nc(Nc3ccc(F)cc3)nc21 [compound 30, 2-[(4-Fluorophenyl)amino]-6-(2-prop-1-oxyethoxy)-9-butyl-9H-purine]
95 to 97	CCCCn1cnc2c(OCCCOCC)nc(Nc3ccc(F)cc3)nc21 [compound 31, 2-[(4-Fluorophenyl)amino]-6-(3-ethoxyprop-1-oxy)-9-butyl-9H-purine]
88 to 90	CCCCn1cnc2c(OCCC(C)C)nc(Nc3ccc(F)cc3)nc21 [compound 32, 2-[(4-Fluorophenyl)amino]-6-(3-methylbut-1-oxy)-9-butyl-9H-purine]
171 to 172	CCCCn1cnc2c(Oc3ccccc3)nc(Nc3ccc(F)cc3)nc21 [compound 33, 2-[(4-Fluorophenyl)amino]-6-phenoxy-9-butyl-9H-purine]
155 to 157	CCCCn1cnc2c(Oc3ccccc3F)nc(Nc3ccc(F)cc3)nc21 [compound 34, 2-[(4-Fluorophenyl)amino]-6-(2-fluorophenoxy)-9-butyl-9H-purine]
185 to 187	CCCCn1cnc2c(Oc3cccc(OC)c3)nc(Nc3ccc(F)cc3)nc21 [compound 35, 2-[(4-Fluorophenyl)amino]-6-(3-methoxyphenoxy)-9-butyl-9H-purine]
138 to 140	CCCCn1cnc2c(Oc3ccc(OCC)cc3)nc(Nc3ccc(F)cc3)nc21 [compound 36, 2-[(4-Fluorophenyl)amino]-6-(4-ethoxyphenoxy)-9-butyl-9H-purine]
> 300	CCCCn1cnc2c(Oc3cccnc3)nc(Nc3ccc(F)cc3)nc21.CS(=O)(=O)O [compound 37, 2-[(4-Fluorophenyl)amino]-6-(pyrid-3-yloxy)-9-butyl-9H-purine methanesulfonate]
158 to 160	CCCCn1cnc2c(OC)nc(Nc3ccc(OC)cc3)nc21 [compound 39, 2-[(4-Methoxyphenyl)amino]-6-methoxy-9-butyl-9H-purine]
171 to 172	CCCCn1cnc2c(OC)nc(Nc3ccc(OCC)cc3)nc21 [compound 40, 2-[(4-Ethoxyphenyl)amino]-6-methoxy-9-butyl-9H-purine]
164	CCCCn1cnc2c(OCC)nc(Nc3ccc(Cl)cc3)nc21 [compound 43, 2-[(4-Chlorophenyl)amino]-6-ethoxy-9-butyl-9H-purine]
101 to 103	CCCCn1cnc2c(OC)nc(Nc3ccccc3OC)nc21 [compound 44, 2-[(2-Methoxyphenyl)amino]-6-methoxy-9-butyl-9H-purine]
77 to 79	CCCCn1cnc2c(OC)nc(Nc3ccccc3OCC)nc21 [compound 45, 2-[(2-Ethoxyphenyl)amino]-6-methoxy-9-butyl-9H-purine]
91 to 93	CCCCn1cnc2c(OC)nc(Nc3ccccc3C)nc21 [compound 46, 2-[(2-Methylphenyl)amino]-6-methoxy-9-butyl-9H-purine]
104 to 106	CCCCn1cnc2c(OC)nc(Nc3ccc(OC)cc3OC)nc21 [compound 47, 2-[(2,4-Dimethoxyphenyl)amino]-6-methoxy-9-butyl-9H-purine]
86 to 88	CCCCn1cnc2c(OCC)nc(Nc3ccc(OC)cc3OC)nc21 [compound 48, 2-[(2,4-Dimethoxyphenyl)amino]-6-ethoxy-9-butyl-9H-purine]
88 to 89	CCCCn1cnc2c(OCCOC)nc(Nc3ccc(OC)cc3OC)nc21 [compound 49, 2-[(2,4-Dimethoxyphenyl)amino]-6-(2-methoxyethoxy)-9-butyl-9H-purine]
129 to 131	CCCCn1cnc2c(Oc3ccccc3)nc(Nc3ccc(OC)cc3OC)nc21 [compound 50, 2-[(2,4-Dimethoxyphenyl)amino]-6-phenoxy-9-butyl-9H-purine]
97 to 99	CCCCn1cnc2c(OCC)nc(Nc3ccc(C)cc3C)nc21 [compound 51, 2-[(2,4-Dimethylphenyl)amino]-6-ethoxy-9-butyl-9H-purine]
160 to 162	CCCCn1cnc2c(OC)nc(Nc3ccc(OC)c(OC)c3)nc21 [compound 52, 2-[(3,4-Dimethoxyphenyl)amino]-6-methoxy-9-butyl-9H-purine]
178 to 179	CCCCn1cnc2c(OC)nc(Nc3ccc(OC)c(F)c3)nc21 [compound 53, 2-[(3-Fluoro-4-methoxyphenyl)amino]-6-methoxy-9-butyl-9H-purine]
138	CCCCn1cnc2c(OCC)nc(Nc3ccc(OC(C)C)cc3F)nc21.CS(=O)(=O)O [compound 54, 2-[(2-Fluoro-4-isopropoxyphenyl)amino]-6-ethoxy-9-butyl-9H-purine methane sulfonate]
171 to 172	CCCCn1cnc2c(OC)nc(Nc3ccc(OC)nc3)nc21 [compound 55, 2-[(2-Methoxypyrid-5-yl)amino]-6-methoxy-9-butyl-9H-purine]
